# PMC12420824, “Discovery of a selective alpha-kinase 1 inhibitor for the rare genetic disease ROSAH syndrome” (Nature Communications, 2025)
# Read-outs that look alike come from different tables or passages of the source.
# Legend:
# [1] = tested on: THP-1 macrophages; test: cells; conditions: Homo sapiens, THP-1, 4 h
# [2] = biological target: CAMK2a (Homo sapiens, UniProt Q9UQM7); test: HotSpot kinase assay; conditions: read-out: % Enzyme Activity (relative to DMSO control), 10 uM
# [3] = biological target: DRAK1/STK17A (Homo sapiens, UniProt Q9UEE5); test: HotSpot kinase assay; conditions: read-out: % Enzyme Activity (relative to DMSO control), 10 uM
# [4] = biological target: CAMK1g (Homo sapiens, UniProt Q96NX5); test: HotSpot kinase assay; conditions: read-out: % Enzyme Activity (relative to DMSO control), 10 uM
# Description: (§1) Additionally, a 10-dose dilution series of staurosporine and other enzyme-appropriate compounds were included as positive control inhibitors.
# [5] = biological target: FES/FPS (Homo sapiens, UniProt P07332); test: HotSpot kinase assay; conditions: read-out: % Enzyme Activity (relative to DMSO control), 10 uM
# [6] = biological target: ITK (Homo sapiens, UniProt Q08881); test: HotSpot kinase assay; conditions: read-out: % Enzyme Activity (relative to DMSO control), 10 uM
# Description: as §1
# [7] = biological target: TRKB (Homo sapiens, UniProt Q16620); test: HotSpot kinase assay; conditions: read-out: % Enzyme Activity (relative to DMSO control), 10 uM
# [8] = biological target: Aurora B (Homo sapiens, UniProt Q96GD4); test: HotSpot kinase assay; conditions: read-out: % Enzyme Activity (relative to DMSO control), 10 uM
# Aurora B, sequence (Q96GD4 whole entry): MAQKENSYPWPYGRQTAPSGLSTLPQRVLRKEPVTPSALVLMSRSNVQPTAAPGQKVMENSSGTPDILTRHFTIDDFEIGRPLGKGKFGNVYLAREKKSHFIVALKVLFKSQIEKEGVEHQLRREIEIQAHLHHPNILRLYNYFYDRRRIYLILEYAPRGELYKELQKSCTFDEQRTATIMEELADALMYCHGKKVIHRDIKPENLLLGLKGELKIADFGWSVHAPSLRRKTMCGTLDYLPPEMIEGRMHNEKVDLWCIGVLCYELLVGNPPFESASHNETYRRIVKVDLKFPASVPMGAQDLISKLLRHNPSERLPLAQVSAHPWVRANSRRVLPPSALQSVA
# Description: as §1
# [9] = biological target: CTK/MATK (Homo sapiens, UniProt P42679); test: HotSpot kinase assay; conditions: read-out: % Enzyme Activity (relative to DMSO control), 10 uM
# CTK/MATK, sequence (P42679 whole entry): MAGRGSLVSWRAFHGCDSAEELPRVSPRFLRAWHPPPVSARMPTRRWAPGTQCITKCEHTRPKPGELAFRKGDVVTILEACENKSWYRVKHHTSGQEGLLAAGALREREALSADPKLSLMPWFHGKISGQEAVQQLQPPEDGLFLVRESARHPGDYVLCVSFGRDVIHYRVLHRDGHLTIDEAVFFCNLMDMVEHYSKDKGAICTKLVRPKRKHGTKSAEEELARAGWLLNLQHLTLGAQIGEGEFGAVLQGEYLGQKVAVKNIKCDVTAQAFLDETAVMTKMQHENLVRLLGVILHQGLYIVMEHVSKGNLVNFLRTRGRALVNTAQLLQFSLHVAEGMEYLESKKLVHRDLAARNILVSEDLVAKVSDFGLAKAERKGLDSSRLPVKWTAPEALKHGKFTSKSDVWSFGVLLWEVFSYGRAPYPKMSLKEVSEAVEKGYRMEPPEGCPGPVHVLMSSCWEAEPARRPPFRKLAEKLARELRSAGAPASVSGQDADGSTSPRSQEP
# Description: as §1
# [10] = biological target: AKT1 (Homo sapiens, UniProt P31749); test: HotSpot kinase assay; conditions: read-out: % Enzyme Activity (relative to DMSO control), 10 uM
# [11] = biological target: AKT3 (Homo sapiens, UniProt Q9Y243); test: HotSpot kinase assay; conditions: read-out: % Enzyme Activity (relative to DMSO control), 10 uM
# [12] = biological target: PAK6 (Homo sapiens, UniProt Q9NQU5); test: HotSpot kinase assay; conditions: read-out: % Enzyme Activity (relative to DMSO control), 10 uM
# Description: as §1
# [13] = biological target: MSSK1/STK23 (Homo sapiens, UniProt Q9UPE1); test: HotSpot kinase assay; conditions: read-out: % Enzyme Activity (relative to DMSO control), 10 uM
# [14] = biological target: DDR1 (Homo sapiens, UniProt Q08345); test: HotSpot kinase assay; conditions: read-out: % Enzyme Activity (relative to DMSO control), 10 uM
# Description: as §1
# [15] = biological target: MNK1 (Homo sapiens, UniProt Q9BUB5); test: HotSpot kinase assay; conditions: read-out: % Enzyme Activity (relative to DMSO control), 10 uM
# [16] = biological target: MLK4 (Homo sapiens, UniProt Q5TCX8); test: HotSpot kinase assay; conditions: read-out: % Enzyme Activity (relative to DMSO control), 10 uM
# [17] = biological target: SIK2 (Homo sapiens, UniProt Q9H0K1); test: HotSpot kinase assay; conditions: read-out: % Enzyme Activity (relative to DMSO control), 10 uM
# SIK2, sequence (Q9H0K1 whole entry): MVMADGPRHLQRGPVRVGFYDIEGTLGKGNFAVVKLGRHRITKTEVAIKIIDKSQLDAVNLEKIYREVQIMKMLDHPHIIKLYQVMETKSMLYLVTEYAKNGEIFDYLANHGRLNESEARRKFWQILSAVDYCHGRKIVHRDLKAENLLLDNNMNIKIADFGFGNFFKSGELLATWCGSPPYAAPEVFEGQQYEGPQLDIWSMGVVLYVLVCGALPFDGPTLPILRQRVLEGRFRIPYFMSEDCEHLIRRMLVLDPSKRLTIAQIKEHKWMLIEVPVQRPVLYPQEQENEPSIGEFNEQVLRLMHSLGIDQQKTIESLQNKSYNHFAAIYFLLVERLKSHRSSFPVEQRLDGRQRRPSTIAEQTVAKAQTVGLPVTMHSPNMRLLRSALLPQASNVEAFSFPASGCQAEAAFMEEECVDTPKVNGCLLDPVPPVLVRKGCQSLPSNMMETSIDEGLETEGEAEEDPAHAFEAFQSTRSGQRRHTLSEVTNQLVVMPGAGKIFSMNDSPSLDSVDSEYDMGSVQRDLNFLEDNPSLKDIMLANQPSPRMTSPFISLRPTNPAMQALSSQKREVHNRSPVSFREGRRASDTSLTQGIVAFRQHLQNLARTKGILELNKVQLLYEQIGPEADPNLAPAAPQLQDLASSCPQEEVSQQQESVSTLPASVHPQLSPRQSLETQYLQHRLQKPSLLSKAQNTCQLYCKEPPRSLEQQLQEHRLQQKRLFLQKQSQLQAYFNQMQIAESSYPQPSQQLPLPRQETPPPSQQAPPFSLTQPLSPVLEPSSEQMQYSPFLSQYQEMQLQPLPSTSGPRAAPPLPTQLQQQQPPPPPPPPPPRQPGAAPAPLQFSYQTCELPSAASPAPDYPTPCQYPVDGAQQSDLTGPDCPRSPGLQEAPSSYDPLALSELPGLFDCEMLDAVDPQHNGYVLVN
# Description: as §1
# [18] = biological target: HGK/MAP4K4 (Homo sapiens, UniProt O95819); test: HotSpot kinase assay; conditions: read-out: % Enzyme Activity (relative to DMSO control), 10 uM
# Description: as §1
# [19] = biological target: MASTL (Homo sapiens, UniProt Q96GX5); test: HotSpot kinase assay; conditions: read-out: % Enzyme Activity (relative to DMSO control), 10 uM
# Description: as §1
# [20] = biological target: CLK2 (Homo sapiens, UniProt P49760); test: HotSpot kinase assay; conditions: read-out: % Enzyme Activity (relative to DMSO control), 10 uM
# CLK2, sequence (P49760 whole entry): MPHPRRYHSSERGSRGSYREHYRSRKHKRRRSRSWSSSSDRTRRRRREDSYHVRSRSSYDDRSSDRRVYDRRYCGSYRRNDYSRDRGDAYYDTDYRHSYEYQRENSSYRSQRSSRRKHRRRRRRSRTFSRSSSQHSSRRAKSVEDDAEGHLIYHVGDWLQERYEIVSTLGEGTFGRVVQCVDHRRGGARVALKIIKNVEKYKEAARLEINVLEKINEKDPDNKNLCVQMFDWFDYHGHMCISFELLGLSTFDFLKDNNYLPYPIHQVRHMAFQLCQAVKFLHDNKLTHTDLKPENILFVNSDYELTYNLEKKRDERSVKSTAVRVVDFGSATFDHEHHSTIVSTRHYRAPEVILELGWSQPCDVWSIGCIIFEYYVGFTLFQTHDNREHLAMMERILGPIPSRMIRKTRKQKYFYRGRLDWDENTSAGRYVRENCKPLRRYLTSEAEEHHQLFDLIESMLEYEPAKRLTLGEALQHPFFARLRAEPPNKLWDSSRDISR
# Description: as §1
# [21] = biological target: PKCb1 (Homo sapiens, UniProt P05771); test: HotSpot kinase assay; conditions: read-out: % Enzyme Activity (relative to DMSO control), 10 uM
# Description: as §1
# [22] = biological target: JNK3 (Homo sapiens, UniProt P53779); test: HotSpot kinase assay; conditions: read-out: % Enzyme Activity (relative to DMSO control), 10 uM
# Description: as §1
# [23] = biological target: ALK2/ACVR1 (Homo sapiens, UniProt Q04771); test: HotSpot kinase assay; conditions: read-out: % Enzyme Activity (relative to DMSO control), 10 uM
# [24] = biological target: STK33 (Homo sapiens, UniProt Q9BYT3); test: HotSpot kinase assay; conditions: read-out: % Enzyme Activity (relative to DMSO control), 10 uM
# [25] = biological target: MRCKb/CDC42BPB (Homo sapiens, UniProt Q9Y5S2); test: HotSpot kinase assay; conditions: read-out: % Enzyme Activity (relative to DMSO control), 10 uM
# [26] = biological target: JAK3 (Homo sapiens, UniProt P52333); test: HotSpot kinase assay; conditions: read-out: % Enzyme Activity (relative to DMSO control), 10 uM
# [27] = biological target: STK32B/YANK2 (Homo sapiens, UniProt Q9NY57); test: HotSpot kinase assay; conditions: read-out: % Enzyme Activity (relative to DMSO control), 10 uM
# Description: as §1
# [28] = biological target: MAK (Homo sapiens, UniProt P20794); test: HotSpot kinase assay; conditions: read-out: % Enzyme Activity (relative to DMSO control), 10 uM
# Description: as §1
# [29] = biological target: CK2a (Homo sapiens, UniProt P68400); test: HotSpot kinase assay; conditions: read-out: % Enzyme Activity (relative to DMSO control), 10 uM
# Description: as §1
# [30] = biological target: CDK2/cyclin O (Homo sapiens, UniProt P24941); test: HotSpot kinase assay; conditions: read-out: % Enzyme Activity (relative to DMSO control), 10 uM
# [31] = biological target: CDK3/cyclin E2 (Homo sapiens, UniProt Q00526); test: HotSpot kinase assay; conditions: read-out: % Enzyme Activity (relative to DMSO control), 10 uM
# [32] = biological target: NEK1 (Homo sapiens, UniProt Q96PY6); test: HotSpot kinase assay; conditions: read-out: % Enzyme Activity (relative to DMSO control), 10 uM
# NEK1, sequence (Q96PY6 whole entry): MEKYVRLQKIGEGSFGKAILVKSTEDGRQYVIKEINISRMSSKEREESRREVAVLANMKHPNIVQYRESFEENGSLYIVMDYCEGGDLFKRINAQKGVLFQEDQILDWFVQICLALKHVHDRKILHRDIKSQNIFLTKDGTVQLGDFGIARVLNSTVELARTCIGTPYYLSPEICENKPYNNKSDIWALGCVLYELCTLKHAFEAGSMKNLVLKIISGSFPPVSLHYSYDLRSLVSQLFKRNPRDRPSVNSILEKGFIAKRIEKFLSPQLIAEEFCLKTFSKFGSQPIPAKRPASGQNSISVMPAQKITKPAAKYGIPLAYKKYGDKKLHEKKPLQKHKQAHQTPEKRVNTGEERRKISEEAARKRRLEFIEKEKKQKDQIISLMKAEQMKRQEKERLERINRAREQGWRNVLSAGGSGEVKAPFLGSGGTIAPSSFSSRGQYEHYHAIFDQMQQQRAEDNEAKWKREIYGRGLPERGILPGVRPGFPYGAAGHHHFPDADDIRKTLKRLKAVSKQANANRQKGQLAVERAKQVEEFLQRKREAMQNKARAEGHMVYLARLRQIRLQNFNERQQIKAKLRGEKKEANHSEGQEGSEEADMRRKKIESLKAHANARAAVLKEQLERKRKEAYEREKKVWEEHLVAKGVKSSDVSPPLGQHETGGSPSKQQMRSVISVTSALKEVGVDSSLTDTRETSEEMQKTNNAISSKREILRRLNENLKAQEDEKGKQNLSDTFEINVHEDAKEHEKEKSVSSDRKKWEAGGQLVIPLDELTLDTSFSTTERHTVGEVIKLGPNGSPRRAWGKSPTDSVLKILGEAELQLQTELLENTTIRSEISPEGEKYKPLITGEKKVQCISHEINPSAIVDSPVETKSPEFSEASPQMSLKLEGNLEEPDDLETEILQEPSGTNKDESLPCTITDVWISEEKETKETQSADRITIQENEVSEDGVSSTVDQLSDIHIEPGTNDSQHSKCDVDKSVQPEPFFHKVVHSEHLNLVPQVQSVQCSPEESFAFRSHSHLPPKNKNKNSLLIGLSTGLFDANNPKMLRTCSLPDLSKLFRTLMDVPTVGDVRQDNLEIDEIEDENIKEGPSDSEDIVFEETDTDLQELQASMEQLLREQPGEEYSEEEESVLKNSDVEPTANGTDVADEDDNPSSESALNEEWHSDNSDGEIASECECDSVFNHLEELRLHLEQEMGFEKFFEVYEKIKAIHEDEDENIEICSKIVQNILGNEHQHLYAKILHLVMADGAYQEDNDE
# Description: as §1
# [33] = biological target: AMPK(A1/B1/G2) (Homo sapiens, UniProt Q13131); test: HotSpot kinase assay; conditions: read-out: % Enzyme Activity (relative to DMSO control), 10 uM
# Description: as §1
# [34] = biological target: GRK7 (Homo sapiens, UniProt Q8WTQ7); test: HotSpot kinase assay; conditions: read-out: % Enzyme Activity (relative to DMSO control), 10 uM
# Description: as §1
# [35] = biological target: EPHA3 (Homo sapiens, UniProt P29320); test: HotSpot kinase assay; conditions: read-out: % Enzyme Activity (relative to DMSO control), 10 uM
# Description: as §1
# [36] = biological target: ERBB4/HER4 (Homo sapiens, UniProt Q15303); test: HotSpot kinase assay; conditions: read-out: % Enzyme Activity (relative to DMSO control), 10 uM
# ERBB4/HER4, sequence (Q15303 26-1308): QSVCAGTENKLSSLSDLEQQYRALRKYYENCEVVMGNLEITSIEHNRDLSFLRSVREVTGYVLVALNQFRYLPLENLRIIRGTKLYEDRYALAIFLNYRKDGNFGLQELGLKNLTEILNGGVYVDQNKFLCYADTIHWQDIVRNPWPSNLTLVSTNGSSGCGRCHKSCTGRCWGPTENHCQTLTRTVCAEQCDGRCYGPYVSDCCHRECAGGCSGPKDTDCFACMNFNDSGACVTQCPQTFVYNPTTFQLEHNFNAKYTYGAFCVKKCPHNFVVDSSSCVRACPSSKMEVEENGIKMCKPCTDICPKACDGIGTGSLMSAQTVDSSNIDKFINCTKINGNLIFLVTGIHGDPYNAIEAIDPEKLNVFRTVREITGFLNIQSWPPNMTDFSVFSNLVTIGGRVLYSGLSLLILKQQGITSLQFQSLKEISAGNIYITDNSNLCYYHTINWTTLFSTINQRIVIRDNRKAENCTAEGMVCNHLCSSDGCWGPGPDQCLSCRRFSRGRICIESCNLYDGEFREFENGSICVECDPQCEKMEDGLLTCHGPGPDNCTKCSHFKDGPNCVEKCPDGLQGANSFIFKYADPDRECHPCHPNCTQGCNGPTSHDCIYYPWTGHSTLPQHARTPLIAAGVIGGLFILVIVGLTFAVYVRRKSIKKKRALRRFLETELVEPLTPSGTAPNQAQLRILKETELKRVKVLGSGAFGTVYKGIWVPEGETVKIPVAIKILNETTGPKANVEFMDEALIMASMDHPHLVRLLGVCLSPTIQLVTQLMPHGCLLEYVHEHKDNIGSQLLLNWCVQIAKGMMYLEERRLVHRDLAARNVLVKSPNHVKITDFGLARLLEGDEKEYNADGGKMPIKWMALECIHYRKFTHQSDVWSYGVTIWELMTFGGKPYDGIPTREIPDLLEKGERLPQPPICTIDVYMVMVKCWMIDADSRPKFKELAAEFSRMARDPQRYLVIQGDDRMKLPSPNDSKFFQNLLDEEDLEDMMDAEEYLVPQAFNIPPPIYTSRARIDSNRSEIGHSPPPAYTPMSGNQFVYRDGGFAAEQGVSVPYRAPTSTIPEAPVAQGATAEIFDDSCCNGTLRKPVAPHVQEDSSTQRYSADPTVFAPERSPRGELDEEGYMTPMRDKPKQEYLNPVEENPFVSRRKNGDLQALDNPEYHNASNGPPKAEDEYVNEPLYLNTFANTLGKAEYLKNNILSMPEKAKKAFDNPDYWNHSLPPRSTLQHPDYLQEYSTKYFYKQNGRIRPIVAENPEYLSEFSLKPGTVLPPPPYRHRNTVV
# Description: as §1
# [37] = biological target: ALK6/BMPR1B (Homo sapiens, UniProt O00238); test: HotSpot kinase assay; conditions: read-out: % Enzyme Activity (relative to DMSO control), 10 uM
# Description: as §1
# [38] = biological target: SNARK/NUAK2 (Homo sapiens, UniProt Q9H093); test: HotSpot kinase assay; conditions: read-out: % Enzyme Activity (relative to DMSO control), 10 uM
# Description: as §1
# [39] = biological target: PKA (Homo sapiens, UniProt P17612); test: HotSpot kinase assay; conditions: read-out: % Enzyme Activity (relative to DMSO control), 10 uM
# Description: as §1
smiles,measurement,setting,value
C#C[C@@](C)(c1ccc(Cl)cc1)c1csc(NC(=O)c2c(F)cc(N3CCNCC3)cc2F)n1 (stereo in doubt) [DF-003],IC50,"[1]; read-out: IC50, DF-006-induced CXCL8 upregulation",6.5 nM
same,IC50,"[1]; read-out: IC50, DF-006-induced TNF upregulation",8 nM
same,remaining activity at 10 µM,[2],9.74%
same,remaining activity at 10 µM,[3],12.7%
same,remaining activity at 10 µM,[4],56.6%
same,remaining activity at 10 µM,[5],71.1%
same,remaining activity at 10 µM,[6],71.2%
same,remaining activity at 10 µM,[7],74.4%
same,remaining activity at 10 µM,[8],76.5%
same,remaining activity at 10 µM,[9],80.2%
same,remaining activity at 10 µM,[10],81.4%
same,remaining activity at 10 µM,[11],83.1%
same,remaining activity at 10 µM,[12],84.2%
same,remaining activity at 10 µM,[13],84.2%
same,remaining activity at 10 µM,[14],85.1%
same,remaining activity at 10 µM,[15],85.4%
same,remaining activity at 10 µM,[16],85.8%
same,remaining activity at 10 µM,[17],88.5%
same,remaining activity at 10 µM,[18],90.5%
same,remaining activity at 10 µM,[19],90.6%
same,remaining activity at 10 µM,[20],90.6%
same,remaining activity at 10 µM,[21],91.2%
same,remaining activity at 10 µM,[22],92.2%
same,remaining activity at 10 µM,[23],92.7%
same,remaining activity at 10 µM,[24],93.9%
same,remaining activity at 10 µM,[25],94.7%
same,remaining activity at 10 µM,[26],98.8%
same,remaining activity at 10 µM,[27],99.6%
same,remaining activity at 10 µM,[28],100%
same,remaining activity at 10 µM,[29],101%
same,remaining activity at 10 µM,[30],103%
same,remaining activity at 10 µM,[31],103%
same,remaining activity at 10 µM,[32],106%
same,remaining activity at 10 µM,[33],114%
same,remaining activity at 10 µM,[34],114%
same,remaining activity at 10 µM,[35],117%
same,remaining activity at 10 µM,[36],121%
same,remaining activity at 10 µM,[37],123%
same,remaining activity at 10 µM,[38],124%
same,remaining activity at 10 µM,[39],195%
